Source: ChEMBL document CHEMBL1148386, “(2S,1'S,2'R,3'R)-2-(2'-Carboxy-3'-hydroxymethylcyclopropyl) glycine is a highly potent group 2 and 3 metabotropic glutamate receptor agonist with oral activity” (J Med Chem, 2004)

What follows are molecules tested against Metabotropic glutamate receptor 2 (Rattus norvegicus, UniProt P31421) (assay: Metabotropic glutamate receptor 2 agonist activity against forskolin stimulated c-AMP formation in rat non neuronal cells).
Type: functional, cell-based

SMILES	EC50 [µM]
N[C@H](C(=O)O)c1ccc(C(=O)O)c(C(=O)O)c1	> 100
N[C@H](C(=O)O)[C@H]1[C@H](CC(=O)O)[C@@H]1C(=O)O	0.3
N[C@H](C(=O)O)[C@H]1C[C@@H]1C(=O)O	0.3
C[C@H]1[C@H](C(=O)O)[C@H]1[C@H](N)C(=O)O	0.008
N[C@@H](CCP(=O)(O)O)C(=O)O	448
N[C@H](C(=O)O)[C@H]1[C@@H](CC(=O)O)[C@@H]1C(=O)O	0.1
N[C@H](C(=O)O)[C@@H]1[C@@H](C(=O)O)C1(F)F	0.09
NC(C(=O)O)c1ccc(P(=O)(O)O)cc1 (racemic)	> 300

What follows are molecules tested against Metabotropic glutamate receptor 3 (Rattus norvegicus, UniProt P31422) (assay: Metabotropic glutamate receptor 3 agonist activity against forskolin stimulated c-AMP formation in rat non neuronal cells).
Metabotropic glutamate receptor 3, sequence (P31422 whole entry): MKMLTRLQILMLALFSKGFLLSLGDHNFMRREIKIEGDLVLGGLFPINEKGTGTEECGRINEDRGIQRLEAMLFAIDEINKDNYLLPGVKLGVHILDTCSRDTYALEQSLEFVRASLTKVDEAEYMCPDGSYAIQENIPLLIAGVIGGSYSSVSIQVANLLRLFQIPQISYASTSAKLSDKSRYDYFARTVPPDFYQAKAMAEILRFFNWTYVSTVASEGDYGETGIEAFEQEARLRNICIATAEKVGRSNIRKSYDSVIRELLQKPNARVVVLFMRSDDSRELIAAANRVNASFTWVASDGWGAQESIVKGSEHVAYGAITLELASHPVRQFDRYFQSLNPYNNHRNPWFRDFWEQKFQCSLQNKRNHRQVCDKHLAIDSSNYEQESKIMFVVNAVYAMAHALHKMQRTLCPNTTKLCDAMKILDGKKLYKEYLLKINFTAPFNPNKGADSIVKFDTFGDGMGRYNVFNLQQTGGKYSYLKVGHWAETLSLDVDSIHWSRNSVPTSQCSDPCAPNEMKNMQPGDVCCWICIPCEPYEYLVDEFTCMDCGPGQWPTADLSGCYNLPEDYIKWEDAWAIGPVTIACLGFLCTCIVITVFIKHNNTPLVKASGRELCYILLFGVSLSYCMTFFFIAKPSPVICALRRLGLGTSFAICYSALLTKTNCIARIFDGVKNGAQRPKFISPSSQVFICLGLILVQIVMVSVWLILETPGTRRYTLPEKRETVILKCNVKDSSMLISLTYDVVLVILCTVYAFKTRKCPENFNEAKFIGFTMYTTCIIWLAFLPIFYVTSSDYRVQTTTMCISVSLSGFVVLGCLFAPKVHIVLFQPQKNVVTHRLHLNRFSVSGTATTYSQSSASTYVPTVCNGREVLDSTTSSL
Type: functional, cell-based

SMILES	EC50 [µM]
N[C@H](C(=O)O)c1ccc(C(=O)O)c(C(=O)O)c1	> 100
N[C@H](C(=O)O)[C@H]1C[C@@H]1C(=O)O	0.6
N[C@H](C(=O)O)C1[C@@H](C(=O)O)[C@@H]1C(=O)O (some centres undefined)	0.2
C[C@H]1[C@H](C(=O)O)[C@H]1[C@H](N)C(=O)O	0.038
N[C@@H](CCP(=O)(O)O)C(=O)O	> 100
NC(C(=O)O)c1ccc(P(=O)(O)O)cc1 (racemic)	> 200

What follows are molecules tested against T1, Metabotropic glutamate receptor 7 (Rattus norvegicus, UniProt P35400) (assay: Metabotropic glutamate receptor 7 agonist activity to influence forskolin stimulated c-AMP formation in rat non neuronal cells).
T1 sequence (P35400 whole entry): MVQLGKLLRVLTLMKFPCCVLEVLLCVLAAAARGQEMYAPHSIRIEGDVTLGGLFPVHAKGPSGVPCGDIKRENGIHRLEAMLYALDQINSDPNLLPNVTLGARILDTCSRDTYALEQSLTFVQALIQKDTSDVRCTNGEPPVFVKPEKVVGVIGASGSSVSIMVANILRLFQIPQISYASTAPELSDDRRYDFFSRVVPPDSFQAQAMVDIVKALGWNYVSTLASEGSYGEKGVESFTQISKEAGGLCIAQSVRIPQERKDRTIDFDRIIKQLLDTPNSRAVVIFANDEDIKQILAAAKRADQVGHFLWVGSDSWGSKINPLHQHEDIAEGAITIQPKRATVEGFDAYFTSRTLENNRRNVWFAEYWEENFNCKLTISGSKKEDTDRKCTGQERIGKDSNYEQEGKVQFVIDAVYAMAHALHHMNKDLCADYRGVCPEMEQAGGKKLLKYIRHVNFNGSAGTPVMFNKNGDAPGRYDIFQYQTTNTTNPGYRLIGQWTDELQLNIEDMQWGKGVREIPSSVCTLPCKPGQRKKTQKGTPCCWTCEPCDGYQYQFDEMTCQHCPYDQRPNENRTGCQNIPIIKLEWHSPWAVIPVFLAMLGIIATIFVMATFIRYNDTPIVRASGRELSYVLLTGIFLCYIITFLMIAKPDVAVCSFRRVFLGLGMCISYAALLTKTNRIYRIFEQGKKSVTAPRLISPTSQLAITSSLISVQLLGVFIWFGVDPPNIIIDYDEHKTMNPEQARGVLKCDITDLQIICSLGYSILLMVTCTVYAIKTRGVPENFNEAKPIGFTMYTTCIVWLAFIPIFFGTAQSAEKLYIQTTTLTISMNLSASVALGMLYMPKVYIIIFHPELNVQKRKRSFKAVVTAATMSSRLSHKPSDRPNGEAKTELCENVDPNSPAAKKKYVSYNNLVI
Type: functional, cell-based

SMILES	EC50 [µM]
N[C@H](C(=O)O)c1ccc(C(=O)O)c(C(=O)O)c1	> 100
N[C@H](C(=O)O)[C@H]1C[C@@H]1C(=O)O	47
C[C@H]1[C@H](C(=O)O)[C@H]1[C@H](N)C(=O)O	> 100
N[C@@H](CCP(=O)(O)O)C(=O)O	175
NC(C(=O)O)c1ccc(P(=O)(O)O)cc1 (racemic)	185

These molecules were tested against Metabotropic glutamate receptor 1 (Rattus norvegicus, UniProt P23385) (assay: Metabotropic glutamate receptor 1 agonist activity as basal [3H]- IP formation in rat).
Metabotropic glutamate receptor 1, sequence (P23385 whole entry): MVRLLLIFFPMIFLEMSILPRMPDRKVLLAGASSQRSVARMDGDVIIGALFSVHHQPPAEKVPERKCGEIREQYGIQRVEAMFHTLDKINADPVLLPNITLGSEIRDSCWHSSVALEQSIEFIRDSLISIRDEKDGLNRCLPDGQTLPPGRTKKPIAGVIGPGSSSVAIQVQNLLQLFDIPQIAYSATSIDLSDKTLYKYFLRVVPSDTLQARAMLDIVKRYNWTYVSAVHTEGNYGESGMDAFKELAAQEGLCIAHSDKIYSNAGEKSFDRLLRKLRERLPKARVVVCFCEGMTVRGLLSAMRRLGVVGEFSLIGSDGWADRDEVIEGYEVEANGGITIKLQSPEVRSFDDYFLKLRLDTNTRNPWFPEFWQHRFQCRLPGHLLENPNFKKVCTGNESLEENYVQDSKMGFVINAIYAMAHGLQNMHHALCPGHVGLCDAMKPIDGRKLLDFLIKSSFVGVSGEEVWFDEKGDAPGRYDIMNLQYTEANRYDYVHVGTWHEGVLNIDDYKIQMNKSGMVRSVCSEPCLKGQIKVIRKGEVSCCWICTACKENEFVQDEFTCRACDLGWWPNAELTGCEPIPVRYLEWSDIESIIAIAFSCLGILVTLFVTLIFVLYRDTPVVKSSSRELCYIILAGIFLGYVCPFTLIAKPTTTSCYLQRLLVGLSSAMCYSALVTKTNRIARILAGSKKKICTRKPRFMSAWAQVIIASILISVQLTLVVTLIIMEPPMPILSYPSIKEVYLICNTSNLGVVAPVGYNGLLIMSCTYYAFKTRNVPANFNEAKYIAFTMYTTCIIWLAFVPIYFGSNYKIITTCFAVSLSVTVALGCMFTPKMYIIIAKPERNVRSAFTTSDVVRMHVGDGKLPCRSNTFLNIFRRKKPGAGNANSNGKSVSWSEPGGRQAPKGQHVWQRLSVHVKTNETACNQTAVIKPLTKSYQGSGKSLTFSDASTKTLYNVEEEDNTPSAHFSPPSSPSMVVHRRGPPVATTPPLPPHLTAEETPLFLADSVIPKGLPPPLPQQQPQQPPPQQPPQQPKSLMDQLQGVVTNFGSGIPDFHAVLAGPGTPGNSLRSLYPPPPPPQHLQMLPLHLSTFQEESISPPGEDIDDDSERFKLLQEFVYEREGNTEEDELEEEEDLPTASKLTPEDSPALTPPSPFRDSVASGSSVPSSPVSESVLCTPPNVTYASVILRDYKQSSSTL
Type: functional

SMILES	EC50 [µM]
N[C@H](C(=O)O)c1ccc(C(=O)O)c(C(=O)O)c1	32
N[C@H](C(=O)O)[C@H]1[C@H](CC(=O)O)[C@@H]1C(=O)O	> 100
N[C@H](C(=O)O)[C@H]1C[C@@H]1C(=O)O	23
N[C@H](C(=O)O)C1[C@@H](C(=O)O)[C@@H]1C(=O)O (some centres undefined)	> 100
C[C@H]1[C@H](C(=O)O)[C@H]1[C@H](N)C(=O)O	> 100
N[C@@H](CCP(=O)(O)O)C(=O)O	> 100
N[C@H](C(=O)O)[C@H]1[C@@H](CC(=O)O)[C@@H]1C(=O)O	> 100
NC(C(=O)O)c1ccc(P(=O)(O)O)cc1 (racemic)	> 500

What follows are molecules tested against Metabotropic glutamate receptor 5 (Rattus norvegicus, UniProt P31424) (assay: Metabotropic glutamate receptor 5 agonist activity as basal [3H]- IP formation in rat).
Type: functional

SMILES	EC50 [µM]
N[C@H](C(=O)O)c1ccc(C(=O)O)c(C(=O)O)c1	> 100
N[C@H](C(=O)O)[C@H]1[C@H](CC(=O)O)[C@@H]1C(=O)O	> 100
N[C@H](C(=O)O)[C@H]1C[C@@H]1C(=O)O	17
N[C@H](C(=O)O)C1[C@@H](C(=O)O)[C@@H]1C(=O)O (some centres undefined)	389
C[C@H]1[C@H](C(=O)O)[C@H]1[C@H](N)C(=O)O	> 100
N[C@@H](CCP(=O)(O)O)C(=O)O	> 100
N[C@H](C(=O)O)[C@H]1[C@@H](CC(=O)O)[C@@H]1C(=O)O	> 100
NC(C(=O)O)c1ccc(P(=O)(O)O)cc1 (racemic)	> 500

These molecules were tested against T2, Metabotropic glutamate receptor 6 (Rattus norvegicus, UniProt P35349) (assay: Metabotropic glutamate receptor 6 agonist activity to influence forskolin stimulated c-AMP formation in rat non neuronal cells).
Type: functional, cell-based

SMILES	EC50 [µM]
N[C@H](C(=O)O)c1ccc(C(=O)O)c(C(=O)O)c1	3.6
N[C@H](C(=O)O)[C@H]1C[C@@H]1C(=O)O	0.6
C[C@H]1[C@H](C(=O)O)[C@H]1[C@H](N)C(=O)O	1.2
N[C@@H](CCP(=O)(O)O)C(=O)O	0.055
NC(C(=O)O)c1ccc(P(=O)(O)O)cc1 (racemic)	4.7

What follows are molecules tested against T2, Metabotropic glutamate receptor 6 (assay: Metabotropic glutamate receptor 6 antagonist activity to influence forskolin stimulated c-AMP formation in rat non neuronal cells).
Type: functional, cell-based

SMILES	EC50 [µM]
N[C@H](C(=O)O)C1[C@@H](C(=O)O)[C@@H]1C(=O)O (some centres undefined)	40

These molecules were tested against T3, Metabotropic glutamate receptor 8 (Rattus norvegicus, UniProt P70579) (assay: Metabotropic glutamate receptor 8 agonist activity against forskolin stimulated c-AMP formation in rat non neuronal cells).
T3 sequence (P70579 whole entry): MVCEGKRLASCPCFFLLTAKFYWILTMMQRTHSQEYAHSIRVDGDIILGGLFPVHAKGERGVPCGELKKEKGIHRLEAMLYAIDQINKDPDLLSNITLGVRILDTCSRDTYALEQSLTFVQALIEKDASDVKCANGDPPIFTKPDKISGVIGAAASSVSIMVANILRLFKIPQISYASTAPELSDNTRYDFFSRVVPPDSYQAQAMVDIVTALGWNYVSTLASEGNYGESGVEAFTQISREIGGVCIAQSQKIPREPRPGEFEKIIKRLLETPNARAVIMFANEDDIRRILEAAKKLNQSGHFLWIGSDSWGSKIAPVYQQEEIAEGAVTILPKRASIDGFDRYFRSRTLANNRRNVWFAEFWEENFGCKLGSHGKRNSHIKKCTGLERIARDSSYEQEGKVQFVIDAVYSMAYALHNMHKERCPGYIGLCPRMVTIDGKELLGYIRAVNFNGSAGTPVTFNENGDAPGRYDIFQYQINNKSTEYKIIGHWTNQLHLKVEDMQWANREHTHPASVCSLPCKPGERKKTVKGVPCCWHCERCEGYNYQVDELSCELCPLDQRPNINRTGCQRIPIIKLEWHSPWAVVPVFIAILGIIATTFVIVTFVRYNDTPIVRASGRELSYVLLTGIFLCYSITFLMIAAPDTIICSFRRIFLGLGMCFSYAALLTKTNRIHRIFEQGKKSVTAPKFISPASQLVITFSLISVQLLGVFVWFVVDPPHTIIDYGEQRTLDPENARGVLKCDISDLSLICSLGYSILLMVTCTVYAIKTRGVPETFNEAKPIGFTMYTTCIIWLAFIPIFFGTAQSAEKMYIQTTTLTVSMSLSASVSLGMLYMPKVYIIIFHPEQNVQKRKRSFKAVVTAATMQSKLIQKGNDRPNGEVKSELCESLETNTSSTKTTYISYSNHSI
Type: functional, cell-based

SMILES	EC50 [µM]
N[C@H](C(=O)O)c1ccc(C(=O)O)c(C(=O)O)c1	0.031
N[C@H](C(=O)O)[C@H]1C[C@@H]1C(=O)O	0.4
C[C@H]1[C@H](C(=O)O)[C@H]1[C@H](N)C(=O)O	1.32
N[C@@H](CCP(=O)(O)O)C(=O)O	0.06
NC(C(=O)O)c1ccc(P(=O)(O)O)cc1 (racemic)	0.21

The molecules below were run against T4, Metabotropic glutamate receptor 4 (Rattus norvegicus, UniProt P31423) (assay: Metabotropic glutamate receptor 4 antagonist activity to influence forskolin stimulated c-AMP formation in rat non neuronal cells).
T4 sequence (P31423 whole entry): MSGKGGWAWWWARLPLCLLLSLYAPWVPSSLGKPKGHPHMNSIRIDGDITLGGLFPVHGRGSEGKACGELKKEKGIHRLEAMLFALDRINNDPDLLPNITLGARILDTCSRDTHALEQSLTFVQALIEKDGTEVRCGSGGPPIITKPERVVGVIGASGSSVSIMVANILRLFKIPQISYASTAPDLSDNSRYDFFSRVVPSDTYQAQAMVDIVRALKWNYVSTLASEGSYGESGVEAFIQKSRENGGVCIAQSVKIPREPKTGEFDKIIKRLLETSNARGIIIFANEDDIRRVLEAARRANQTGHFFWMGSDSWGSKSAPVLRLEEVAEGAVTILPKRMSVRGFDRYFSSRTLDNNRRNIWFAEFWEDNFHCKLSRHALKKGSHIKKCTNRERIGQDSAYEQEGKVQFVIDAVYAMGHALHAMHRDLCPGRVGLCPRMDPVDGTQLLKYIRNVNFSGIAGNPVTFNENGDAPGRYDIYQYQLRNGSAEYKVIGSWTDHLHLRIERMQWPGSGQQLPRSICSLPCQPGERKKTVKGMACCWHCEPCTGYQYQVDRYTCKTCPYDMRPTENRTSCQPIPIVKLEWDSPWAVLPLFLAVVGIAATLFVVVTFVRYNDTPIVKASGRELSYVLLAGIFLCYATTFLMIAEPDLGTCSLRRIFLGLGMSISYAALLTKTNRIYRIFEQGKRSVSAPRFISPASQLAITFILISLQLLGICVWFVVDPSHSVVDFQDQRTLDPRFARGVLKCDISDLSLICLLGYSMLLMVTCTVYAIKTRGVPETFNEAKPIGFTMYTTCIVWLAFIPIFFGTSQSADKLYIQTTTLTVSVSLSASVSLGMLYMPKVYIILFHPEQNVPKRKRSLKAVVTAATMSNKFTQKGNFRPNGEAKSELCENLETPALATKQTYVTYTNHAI
Type: functional, cell-based

SMILES	EC50 [µM]
N[C@H](C(=O)O)C1[C@@H](C(=O)O)[C@@H]1C(=O)O (some centres undefined)	23

What follows are molecules tested against T3, Metabotropic glutamate receptor 8 (assay: Metabotropic glutamate receptor 8 antagonist activity to influence forskolin stimulated c-AMP formation in rat non neuronal cells).
Type: functional, cell-based

SMILES	EC50 [µM]
N[C@H](C(=O)O)C1[C@@H](C(=O)O)[C@@H]1C(=O)O (some centres undefined)	32

Each molecule was assayed against T4, Metabotropic glutamate receptor 4 (assay: Metabotropic glutamate receptor 4 agonist activity to influence forskolin stimulated c-AMP formation in rat non neuronal cells).
Type: functional, cell-based

SMILES	EC50 [µM]
N[C@H](C(=O)O)c1ccc(C(=O)O)c(C(=O)O)c1	8.8
N[C@H](C(=O)O)[C@H]1C[C@@H]1C(=O)O	4
C[C@H]1[C@H](C(=O)O)[C@H]1[C@H](N)C(=O)O	> 100
N[C@@H](CCP(=O)(O)O)C(=O)O	0.32
NC(C(=O)O)c1ccc(P(=O)(O)O)cc1 (racemic)	5.2

Each molecule was assayed against T1, Metabotropic glutamate receptor 7 (assay: Metabotropic glutamate receptor 7 antagonist activity to influence forskolin stimulated c-AMP formation in rat non neuronal cells).
Type: functional, cell-based

SMILES	EC50 [µM]
N[C@H](C(=O)O)C1[C@@H](C(=O)O)[C@@H]1C(=O)O (some centres undefined)	40
